≈ marks a conversion by molar mass, not a printed value.

Series [1] has as its target T1, human β3 adrenergic receptor (Homo sapiens, UniProt P13945).
T1 construct: the full length human β3 gene is obtained from a human genomic library; expressed in transfected cells; host or cells: CHO (Chinese Hamster Ovary) cells, pcDNA3, geneticin selection
The series can be described thus: Test Example 1-B: human β3 adrenergic receptor agonist activity (cAMP-Screen kit, transfected CHO cells, 96-well). Type of series: cell-based. The settings on record: for Emax: CHO, read-out: β3 receptor I.A.; for EC50: Table 2, Test Example 1-B. As for the experimental part: Measurement of Human β3 Adrenergic Receptor Agonist Activity
The measurement of human β3 adrenergic receptor agonist activity is carried out using CHO (Chinese Hamster Ovary) cells transfected with pcDNA3 (manufactured by Invitrogen, Inc.) to which human β3 gene has been inserted. […] This human β3 cDNA fragment is used as a probe, and the full length human β3 gene is obtained from a human genomic library (manufactured by Clontech Laboratories, Inc.). The above cells are cultured in Ham's F-12 medium containing 10% fetal bovine serum and 400 μg/ml geneticin (manufactured by Invitrogen, Inc.). These cells are seeded on a 96-well plate to a concentration of 2×10^4 cells/well, and after being cultured for about 20 hours, the cells are left to stand in 80 μL of serum-free Ham's F-12 medium for 15 minutes. A test compound is initially dissolved in DMSO, and then is diluted stepwise with Ham's F-12 containing 100 mmol/L HEPES and 1 mmol/L isobutylmethylxanthine. 20 μL of the dilution is added to the cells. After the cells are cultured for 30 minutes, the medium is removed. 0.3. ml of the Assay/lysis Buffer included in cAMP-Screen kit (manufactured by Applied Biosystems, Inc.) is added to the cells, and the cells are incubated at 37° C. for 30 minutes. The resulting cell lysate is subjected to quantification of cAMP with the cAMP-Screen kit.

Series [2] relates to rat under pentobarbital anesthesia. The series can be described thus: Test Example 9: effect on blood pressure and heart rate of rat under pentobarbital anesthesia. Format: in vivo. The note with it: 3 mg/kg intravenous, male SD rat, average value ± standard error of largest change. On the procedure: Effect on Blood Pressure and Heart Rate of Rat Under Pentobarbital Anesthesia
The effect of intravenous bolus administration of a test compound exerted on the blood pressure and heart rate can be investigated by measuring the blood pressure and heart rate of a rat under pentobarbital anesthesia. 50 mg/kg of pentobarbital sodium (manufactured by Tokyo Chemical Industry Co., Ltd.) is intraperitoneally administered to a male SD rat (supplied by Japan SLC, Inc.) to induce anesthesia, and then 25 mg/kg of pentobarbital sodium is subcutaneously administered to maintain anesthesia. The left femoral vein is exposed and detached, and then a polyethylene tube SP10 (connected to a three-way stopcock via a ¼ vein needle) filled with physiological saline is inserted and placed in the vein.
The inner side of the left femur is incised, and the femoral artery is exposed and detached. A polyethylene tube (SP31, connected to a three-way stopcock via a Terumo injection needle 22G) filled with heparized physiological saline is inserted in the artery, and is connected to a pressure transducer. The blood pressure is measured from the pressure transducer through a pressure amplifier (AP-641G, Nihon Koden Corp.). The heart rate is measured by the Heart Rate Counter (AT-601G, Nihon Koden Corp.), using the pulse wave of the blood pressure as the trigger. The blood pressure, mean blood pressure and heart rate are outputted to a recorder and recorded. Here, the mean blood pressure is recorded by a pressure amplifier (AP-641G) according to the formula: {diastolic blood pressure+(systolic blood pressure−diastolic blood pressure)/3 }.
Measurement of the blood pressure and heart rate is initiated, and it is checked that the respective values are almost constant. 3 mg/kg of the test compound is administered through the left femoral vein for 30 seconds. Specifically, 3 mg/mL of the test compound is rapidly administered at a dose volume of 1 mL/kg. The relative values of the values of average blood pressure and heart rate at each time point with respect to the same values obtained before the initiation of administration, are determined for each individual, and the average value±standard error of the relative values (%) obtainable when each parameter changes the most, is determined.

Series [3] can be described thus: Test Example 13: stability in pure water. Format: physicochemical. On the procedure:
Test on Stability in Pure Water
(§1) A test compound is prepared in pure water to be in the saturated state. This solution is shaken for one hour at room temperature. After the shaking, the entire amount of the solution is transferred into a filter tube, and the solution is filtered by centrifugation. The filtrate is analyzed by HPLC immediately after filtration, 24 hours after filtration, and 48 hours after filtration. The stability of the test compound is determined using a calibration curve, based on the peak area value.
A standard solution is prepared by precisely weighing each test compound, and preparing a solution that sufficiently dissolves in pure water. The calibration curve is produced by assigning the concentration of the standard solution to the horizontal axis, and assigning the HPLC area peak at the concentration to the vertical axis.
YMC-Pack C18 (4.6 mm×150 mm) (manufactured by YMC Co., Ltd.) is used as a separating column. The detection is performed with UV-254 nm. The temperature in the column is set at 40° C. Elution is carried out at a flow rate of 1 ml/min, using solution A=water [containing 0.1% (v/v) acetic acid] and solution B=acetonitrile as the solvents, under the conditions in which a linear gradient of the solution B is run from 5 to 98% (v/v) from zero minute to 20 minute, subsequently solution B is eluted at 98% up to 25 minute, and the solution B is eluted at 5% from 25.01 minute to 35 minute.

Series [4] in a line: Test Example 14: stability in phosphate buffer solution at pH 6.8. Type of series: physicochemical. On the procedure:
as §1
Test on Stability in Phosphate Buffer Solution at pH 6.8
The stability of a test compound is determined by performing the same test as that performed in Test Example 13, except that the pure water is changed to a phosphate buffer solution at pH 6.8.

Series [5] can be described thus: Test Example 12: solubility in physiological saline. The settings on record: saline or isotonic, thermodynamic from solid, 37° C., one hour, 1 mg/mL nominal. Type of series: physicochemical. On the procedure:
A test compound is precisely weighed to 500 μg, and a hydrochloric acid buffer solution at pH 1.2 is added thereto to a concentration of 1 mg/mL. The solution is shaken at 37° C. for one hour. After the shaking, the entire amount of the solution is transferred into a filter tube, and the solution is filtered by centrifugation. The filtrate is analyzed by HPLC, and the solubility of the test compound is determined by dividing the peak area value of the filtrate by the peak area value of the standard solution.
Test on Solubility in Physiological Saline
The solubility of a test compound is determined by performing the same test as that performed in Test Example 11, except that the hydrochloric acid buffer solution at pH 1.2 is changed to physiological saline.

T1 sequence (P13945 whole entry): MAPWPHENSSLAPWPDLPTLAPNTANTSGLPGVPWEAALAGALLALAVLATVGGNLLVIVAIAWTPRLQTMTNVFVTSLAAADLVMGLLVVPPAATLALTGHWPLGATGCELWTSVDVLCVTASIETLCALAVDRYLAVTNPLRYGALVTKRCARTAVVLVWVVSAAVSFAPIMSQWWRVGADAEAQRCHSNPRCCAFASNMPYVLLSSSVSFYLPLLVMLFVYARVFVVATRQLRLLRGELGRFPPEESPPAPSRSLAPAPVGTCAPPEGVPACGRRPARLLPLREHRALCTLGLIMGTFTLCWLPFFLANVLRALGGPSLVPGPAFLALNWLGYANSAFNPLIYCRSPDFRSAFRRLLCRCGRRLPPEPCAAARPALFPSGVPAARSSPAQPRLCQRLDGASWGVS

Take `CCc1n[nH]c2cc(OCCNC[C@H](O)c3ccc(F)c(NS(C)(=O)=O)c3)ccc12` [Example 8, (R)-N-(5-(2-(2-(3-ethylindazol-6-yloxy)ethylamino)-1-hydroxyethyl)-2-fluorophenyl)methanesulfonamide]: in series [1], the Emax was 61% and the EC50 (commonly the concentration giving half of the maximal effect) stood at 17 nM. For the same molecule, the “increase in MBP (%)” value in series [2] is 0.4 ± 0.5%.
`CCCc1n[nH]c2cc(OCCNC[C@H](O)c3cccc(NS(C)(=O)=O)c3)ccc12` [Example 3, (R)-N-(3-(1-hydroxy-2-(2-(3-propylindazol-6-yloxy)ethylamino)ethyl)phenyl)methanesulfonamide]: the “increase in MBP (%)” value in series [2] came to 3.4 ± 3.7%.
`CCc1n[nH]c2cc(OCCNC[C@H](O)c3cccc(NS(C)(=O)=O)c3)ccc12` [Example 2, (R)-N-(3-(1-hydroxy-2-(2-(3-ethylindazol-6-yloxy)ethylamino)ethyl)phenyl)methanesulfonamide]: the Emax in series [1] is 76%. This molecule also gave an EC50 in series [1] of 17 nM. Moreover, the HPLC area percent in series [3] (after 24 hours), in series [3] (after 48 hours), in series [3] (immediately after filtration), in series [4] (after 24 hours), in series [4] (after 48 hours) and in series [4] (immediately after filtration) was 98.2% throughout. Besides, in series [2], the “increase in MBP (%)” value is 3.1 ± 0.5%. Also, the solubility (usually the dissolved amount per volume that the medium holds) at 1 h in series [5] was not below 1000 µg/mL.
As to `COc1n[nH]c2cc(OCCNC[C@H](O)c3cccc(NS(=O)(=O)c4ccccc4)c3)ccc12` [Example 16, (R)-N-(3-(1-hydroxy-2-(2-(3-methoxyindazol-6-yloxy)ethylamino)ethyl)phenyl)benzenesulfonamide], in series [1], the Emax is 75% and the half-maximal effective concentration (EC50) was 17 nM. Also, the “increase in MBP (%)” value in series [2] worked out at 6.6 ± 3.2%.
As for `COCc1n[nH]c2cc(OCCNC[C@H](O)c3cccc(NS(C)(=O)=O)c3)ccc12` [Example 6, (R)-N-(3-(1-hydroxy-2-(2-(3-methoxymethylindazol-6-yloxy)ethylamino)ethyl)phenyl)methanesulfonamide], the “increase in MBP (%)” value in series [2] worked out at 2.8 ± 1.1%. The same molecule came in with a solubility at 1 h in series [5] of 993 µg/mL (≈ 2290 µM).
Turning to `CC(C)c1n[nH]c2cc(OCCNC[C@H](O)c3cccc(NS(C)(=O)=O)c3)ccc12` [Example 1, (R)-N-(3-(1-hydroxy-2-(2-(3-isopropylindazol-6-yloxy)ethylamino)ethyl)phenyl)methanesulfonamide], the Emax in series [1] turned out to be 74%. The molecule also returned a 50% effective concentration (EC50) in series [1] of 17 nM. In addition, the HPLC area percent in series [3] (after 24 hours) was determined as 99.8%; in series [3] (after 48 hours) it was 99.8%; in series [3] (immediately after filtration), 100%; in series [4] (after 24 hours), 99.9%; in series [4] (after 48 hours), 100%; in series [4] (immediately after filtration), 99.8%. Also, in series [2], the “increase in MBP (%)” value was 4.7 ± 2.1%. The solubility at 1 h in series [5] is not below 1000 µg/mL.
`CCc1n[nH]c2cc(OCCNC[C@H](O)c3ccc(Cl)c(NS(C)(=O)=O)c3)ccc12` [Example 9, (R)-N-(2-chloro-5-(2-(2-(3-ethylindazol-6-yloxy)ethylamino)-1-hydroxyethyl)phenyl)methanesulfonamide]: in series [1], the Emax turned out to be 58% and the concentration for a half-maximal effect (EC50) is 29 nM. For the same molecule, the “increase in MBP (%)” value in series [2] is 1.7 ± 2.7%.
Take `CS(=O)(=O)Nc1cc([C@@H](O)CNCCOc2ccc3c(C(F)(F)F)n[nH]c3c2)ccc1Cl` [Example 11, (R)-N-(2-chloro-5-(1-hydroxy-2-(2-(3-(trifluoromethyl)indazol-6-yloxy)ethylamino)ethyl)phenyl)methanesulfonamide]: in series [1], the Emax is 65% and the EC50 is 15 nM. Also, the “increase in MBP (%)” value in series [2] is 1.8 ± 1.4%.
In the case of `CS(=O)(=O)Nc1cccc([C@@H](O)CNCCOc2ccc3c(C(F)(F)F)n[nH]c3c2)c1` [Example 4, (R)-N-(3-(1-hydroxy-2-(2-(3-trifluoromethylindazol-6-yloxy)ethylamino)ethyl)phenyl)methanesulfonamide], the Emax in series [1] is 78%. The EC50 in series [1] turned out to be 49 nM. The HPLC area percent in series [3] (after 24 hours) amounted to 98.7%; in series [3] (after 48 hours), 98.6%; in series [3] (immediately after filtration), 98.7%; in series [4] (after 24 hours), 99.6%; in series [4] (after 48 hours), 99.6%; in series [4] (immediately after filtration) it was 99.6%. Besides, in series [2], the “increase in MBP (%)” value is 3.1 ± 2.1%. The same molecule displayed a solubility at 1 h in series [5] of 932 µg/mL (≈ 2030 µM).
With `CN(C)C(=O)CCc1n[nH]c2cc(OCCNC[C@H](O)c3cccc(NS(C)(=O)=O)c3)ccc12` [Example 5, (R)-3-(6-(2-(2-hydroxy-2-(3-(methylsulfonamido)phenyl)ethylamino)ethoxy)-indazol-3-yl)-N,N-dimethylpropanamide], in series [2], the “increase in MBP (%)” value is on record as 3.4 ± 2.2%. In series [5], this molecule came in with a solubility at 1 h not below 1000 µg/mL.

(Values after patent US8008506B2, “Indazole compounds” (priority 2008, dated 2011).)
